In patent US7163923B2, “Peptide deformylase activated prodrugs” (Celmed Oncology (USA), Inc., priority 2001, dated 2007):
≈ marks a conversion by molar mass, not a printed value.

Key:
[1] = Stability in mouse plasma; format: in vitro ADME
Experimental: (§1) Stability of PDF ECTA compounds was determined in different media: PBS, pH 7.4 (Gibco Life Technologies), 50 mM HEPES buffer (Sigma), pH 7.5, Mueller Hinton broth (Becton Dickinson), mouse and human plasma (Sigma). Dependence of a compound concentration on time was fit to an exponential equation c=co×exp(−k×t)} where c is the running concentration of the compound, co is its initial concentration and t is time. The compound half-life was determined as t1/2=0.693/k.

[2] = Stability in human plasma; format: in vitro ADME
Experimental: as §1

[3] = Stability in PBS, HEPES buffer and Mueller Hinton broth; format: physicochemical
Experimental: as §1

[4] = system: P. aeruginosa; test: MIC susceptibility testing (NCCLS, 96-well); format: cell-based; conditions: P. aeruginosa ATCC 27853, 18 hours at 35° C.
Experimental: (§2) The NCCLS (National Committee for Clinical Laboratory Standards) method was used to determine MIC's of antimicrobial compounds. All stocks of tested compounds were prepared in either water or DMSO based on the solubility. At the highest concentration of the tested compound DMSO content should not exceed 0.5%. Briefly 2-fold serial dilutions of test compounds from the highest concentration were made in a 96-well microtiter plate. Each well was inoculated with testing bacteria in broth to a final concentration of approximately 5×10^5 CFU/ml. Bacterial growth was monitored by the increase of optical density at 600 nm using a microplate reader (Tecan SpectraFluor Plus). The MIC was defined as the lowest concentration at which bacteria growth (equivalent to visible growth) was inhibited after 18 hours of incubation at 35° C.

[5] = system: S. aureus; test: MIC susceptibility testing (NCCLS, 96-well); format: cell-based
Experimental: as §2

[6] = system: E. faecalis; test: MIC susceptibility testing (NCCLS, 96-well); format: cell-based; conditions: E. faecalis ATCC 29212, 18 hours at 35° C.
Experimental: as §2

[7] = system: E. coli; test: MIC susceptibility testing (NCCLS, 96-well); format: cell-based; conditions: E. coli ATCC 25922, 18 hours at 35° C.
Experimental: as §2

[8] = system: S. aureus; test: MIC susceptibility testing (modified NCCLS, 384-well); format: cell-based; conditions: Staphylococcus aureus
Experimental: The NCCLS (National Committee for Clinical Laboratory Standards), method to determine MIC's of antimicrobial compounds is modified for high-throughput screening. All stocks of tested compounds are prepared in either water or in DMSO depending on solubility. At the highest concentration, DMSO content should not exceed 0.5%. Briefly, twenty 2-fold serial dilutions of test compounds from the highest concentration are made in a 384-well microtiter plate. Each well is inoculated with testing bacteria in broth to a final concentration of approximately 1–1.5×10^6 cells/ml. Bacterial growth is determined by the increase of optical density at 600 nm using a microplate reader (Tecan SpectraFluor Plus). The MIC is defined as the lowest concentration at which bacterial growth (equivalent to visible growth) was inhibited after 16 to 18 hours of incubation at the appropriate temperature required for the bacteria growth.
Using the assay provided above, the potency of NB2046 was compared to triclosan.

[9] = target: T1, purified PDF (Escherichia coli, UniProt P0A6K3); test: Cell-free reaction catalyzed by purified PDF (HPLC, Michaelis-Menten); format: biochemical, E. coli; conditions: different concentrations of actinonin, FIG. 5
T1 construct: made in house; host or cells: PDF-overexpressing E. coli
T1 sequence (P0A6K3 1-169): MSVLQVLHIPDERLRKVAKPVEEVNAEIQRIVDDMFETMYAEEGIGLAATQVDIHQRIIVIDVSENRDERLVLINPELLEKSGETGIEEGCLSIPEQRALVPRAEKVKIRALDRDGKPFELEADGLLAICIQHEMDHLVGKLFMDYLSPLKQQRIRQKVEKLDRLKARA
Experimental: (§3) In a seperate experiment, cell-free reaction of PDF ECTA compounds has been studied using PDF purified from PDF-overexpressing E. coli following a procedure described in Ragusa S., et al. (2000) and Wei, et al. (2000b). NB3068 conversion was used as an example of a PDF ECTA reaction catalyzed by purified PDF. It was carried out in 50 mM HEPES buffer, pH 7.5 at room temperature. NB3068 concentrations were in the range of 2–250 μM, and the concentration of the enzyme in the reaction mixture was 25 nM. The conversion was monitored by direct injection of the reaction mixture onto an HPLC column (Adsorbosphere HS, C18, 5 μm, 4.6 mm×150 mm, Alltech). […] Kinetic parameters of the reaction were determined fitting the data to the Michaelis-Menten equation.
(§4) To confirm the role of PDF in catalyzing NB3068 transformation the rate of the reaction at different enzyme concentrations was determined (FIGS. 3 and 4). As can been seen the rate of the reaction is proportional to the enzyme concentration.

[10] = substrate: CCn1cc(C(=O)O)c(=O)c2cc(F)c(N3CCN(C(=O)OCc4ccc(OC(=O)[C@H](CC(C)C)NC(=O)[C@H](CCSC)NC=O)cc4)CC3)cc21; test: as above; format: biochemical, E. coli; conditions: other: PDF 25 nM, 50 mM HEPES pH 7.5, room temperature, substrate 2–250 μM
Experimental: as §3, §4

[11] = S. aureus (MS) ATCC 29213, 18 hours at 35° C.
[12] = 50 mM HEPES buffer, pH 7.5, 6 hours
[13] = 50 mM HEPES buffer, pH 7.5, read-out: t1/2 HEPES
[14] = Mueller Hinton broth, read-out: t1/2 Broth
[15] = PBS, pH 7.4, read-out: t1/2 PBS

Molecule: 1-Cyclopropyl-6-fluoro-4-oxo-7-piperazin-1-yl-1,4-dihydro-quinoline-3-carboxylic acid 4-[2-(2-formylamino-4-methylsulfanyl-butyrylamino)-4-methyl-pentanoyloxy]-benzylester [NB3057]
- t1/2 Mouse Plasma [1]: 1.4 min
- t1/2 Human Plasma [2]: <30 s
- t1/2 Broth ([3]; buffer): 10 h
- percent of the compound remaining after 6 hours, PBS ([3]; buffer, 6 h, pH 7.4): (82%)
- t1/2 PBS ([3]; buffer, pH 7.4): >12 h
- t1/2 HEPES ([3]; buffer, pH 7.5): >12 h
- MIC [4]: 2 µg/mL
- MIC ([5]; S. aureus (MR) ATCC 33591, 18 hours at 35° C.): 0.5 µg/mL
- MIC [5, 11]: 0.125 µg/mL
- MIC [6]: 4 µg/mL
- MIC [7]: 0.0625 µg/mL

Molecule: CSCC[C@H](NC=O)C(=O)N[C@@H](CC(C)C)C(=O)Oc1ccc(CSc2cccc[n+]2[O-])cc1 [NB3024]
- percent of the compound remaining after 6 hours, HEPES [3, 12]: (88%)
- half-life [3, 13]: > 12 h
- percent of the compound remaining after 6 hours, Broth ([3]; Mueller Hinton broth, 6 hours): (82%)
- half-life [3, 14]: > 12 h
- percent of the compound remaining after 6 hours, PBS ([3]; PBS, pH 7.4, 6 hours): (81%)
- half-life [3, 15]: > 12 h
- MIC [4]: 128 µg/mL (≈ 253 µM)
- MIC [5, 11]: 8 µg/mL (≈ 15.8 µM)
- MIC [6]: 32 µg/mL (≈ 63.3 µM)
- MIC [7]: 16 µg/mL (≈ 31.6 µM)

Molecule: CCn1cc(C(=O)O)c(=O)c2cc(F)c(N3CCN(C(=O)OCc4ccc(OC(=O)[C@H](CC(C)C)NC(=O)[C@H](CCSC)NC=O)cc4)CC3)cc21 [NB3068, 1-Ethyl-6-fluoro-7-(4-{4-[2-(2-formylamino-4-methylsulfanyl-butyrylamino)-4-methyl-pentanoyloxy]-benzyloxycarbonyl}-piperazin-1yl)-4-oxo-1,4-dihydro-qiuinoline-3-carboxylic acid]
- half-life ([1]; read-out: t1/2 Mouse Plasma): 36 s
- half-life ([2]; read-out: t1/2 Human Plasma): 4.1 min
- percent of the compound remaining after 6 hours, HEPES [3, 12]: (70%)
- half-life [3, 13]: > 12 h
- percent of the compound remaining after 6 hours, Broth ([3]; Mueller Hinton broth, 6 hours): (70%)
- half-life [3, 14]: > 12 h
- percent of the compound remaining after 6 hours, PBS ([3]; PBS, pH 7.4, 6 hours): (75%)
- half-life [3, 15]: > 12 h
- MIC [4]: 0.5 µg/mL (≈ 0.674 µM)
- MIC [5, 11]: 2 µg/mL (≈ 2.7 µM)
- MIC [6]: 2 µg/mL (≈ 2.7 µM)
- MIC [7]: < 0.004 µg/mL

Molecule: CSCC[C@H](NC=O)C(=O)N[C@@H](CC(C)C)C(=O)Oc1ccc(COC(=O)N(CCCl)CCCl)cc1 [NB3103, 2-(2-Formylamino-4-methylsulfanyl-butyrylamino)-4-methyl-pentanoic acid 4-{[bis-(2-chloro-ethyl)-carbamoyloxy]-methyl}-phenyl ester]
- percent of the compound remaining after 6 hours, HEPES [3, 12]: (95%)
- half-life [3, 13]: > 12 h
- percent of the compound remaining after 6 hours, Broth ([3]; Mueller Hinton broth, 6 hours): (95%)
- percent of the compound remaining after 6 hours, PBS ([3]; PBS, pH 7.4, 6 hours): (96%)
- half-life ([3]; buffer, Mueller Hinton broth, read-out: t1/2 Broth): > 12 h
- half-life ([3]; buffer, PBS, pH 7.4, read-out: t1/2 PBS): > 12 h
- MIC [4]: > 128 µg/mL
- MIC [5, 11]: > 128 µg/mL
- MIC [6]: > 128 µg/mL
- MIC [7]: > 128 µg/mL

Molecule: Oc1cc(Cl)ccc1Oc1ccc(Cl)cc1Cl [Triclosan, reference compound]
- MIC ([8]; ATCC 11632 / MSSA): 0.00195 µg/mL (≈ 0.00675 µM)
- MIC ([8]; ATCC 13301 / MSSA): 0.000488 µg/mL (≈ 0.00169 µM)
- MIC ([8]; ATCC 14154 / MSSA): 0.00195 µg/mL (≈ 0.00675 µM)
- MIC ([8]; ATCC 33591 / MSSA): 0.00781 µg/mL (≈ 0.027 µM)
- MIC ([8]; ATCC 33592 / MSSA): 0.00391 µg/mL (≈ 0.0135 µM)
- MIC ([8]; ATCC 33593 / MSSA): 0.000977 µg/mL (≈ 0.00337 µM)
- MIC ([8]; ATCC 43300 / MSSA): 0.00195 µg/mL (≈ 0.00675 µM)
- MIC ([8]; ATCC 700260 / MSSA): 0.000244 µg/mL (≈ 0.000843 µM)
- MIC ([8]; ATCC 700698 / MSSA): 0.00391 µg/mL (≈ 0.0135 µM)
- MIC ([8]; ATCC 700699 / MSSA): ≥ 4 µg/mL
- MIC ([8]; ATCC 700787 / MSSA): 0.00195 µg/mL (≈ 0.00675 µM)
- MIC ([8]; ATCC 700788 / MSSA): 0.0312 µg/mL (≈ 0.108 µM)
- MIC ([8]; ATCC 700789 / MSSA): 0.0156 µg/mL (≈ 0.054 µM)

Molecule: CCCCC[C@H](CC(=O)NO)C(=O)N[C@H](C(=O)N1CCC[C@H]1CO)C(C)C [actinonin]
- Effect on NB3068 reaction catalyzed by purified PDF [9]: slows down the reaction in dose dependent manner

B1: purified PDF (Escherichia coli K-12) (protein)
chain: MSVLQVLHIPDERLRKVAKPVEEVNAEIQRIVDDMFETMYAEEGIGLAATQVDIHQRIIVIDVSENRDERLVLINPELLEKSGETGIEEGCLSIPEQRALVPRAEKVKIRALDRDGKPFELEADGLLAICIQHEMDHLVGKLFMDYLSPLKQQRIRQKVEKLDRLKARA
notes: made in house; host or cells: PDF-overexpressing E. coli
- Km [10]: 125 ± 17 µM
- kcat [10]: 2.07 ± 0.14 s⁻¹
- kcat/Km [10]: 17000 M⁻¹ s⁻¹
